Reference: ChEMBL document CHEMBL1135760, “Anilinoquinazoline inhibitors of fructose 1,6-bisphosphatase bind at a novel allosteric site: synthesis, in vitro characterization, and X-ray crystallography” (J Med Chem, 2002)

Biological target: T1, Epidermal growth factor receptor (Homo sapiens, UniProt P00533)
Experiment: (§1) Inhibition of (EGFR) epidermal growth factor receptor tyrosine kinase
Conditions: concentration not given here

T1 sequence (P00533 whole entry): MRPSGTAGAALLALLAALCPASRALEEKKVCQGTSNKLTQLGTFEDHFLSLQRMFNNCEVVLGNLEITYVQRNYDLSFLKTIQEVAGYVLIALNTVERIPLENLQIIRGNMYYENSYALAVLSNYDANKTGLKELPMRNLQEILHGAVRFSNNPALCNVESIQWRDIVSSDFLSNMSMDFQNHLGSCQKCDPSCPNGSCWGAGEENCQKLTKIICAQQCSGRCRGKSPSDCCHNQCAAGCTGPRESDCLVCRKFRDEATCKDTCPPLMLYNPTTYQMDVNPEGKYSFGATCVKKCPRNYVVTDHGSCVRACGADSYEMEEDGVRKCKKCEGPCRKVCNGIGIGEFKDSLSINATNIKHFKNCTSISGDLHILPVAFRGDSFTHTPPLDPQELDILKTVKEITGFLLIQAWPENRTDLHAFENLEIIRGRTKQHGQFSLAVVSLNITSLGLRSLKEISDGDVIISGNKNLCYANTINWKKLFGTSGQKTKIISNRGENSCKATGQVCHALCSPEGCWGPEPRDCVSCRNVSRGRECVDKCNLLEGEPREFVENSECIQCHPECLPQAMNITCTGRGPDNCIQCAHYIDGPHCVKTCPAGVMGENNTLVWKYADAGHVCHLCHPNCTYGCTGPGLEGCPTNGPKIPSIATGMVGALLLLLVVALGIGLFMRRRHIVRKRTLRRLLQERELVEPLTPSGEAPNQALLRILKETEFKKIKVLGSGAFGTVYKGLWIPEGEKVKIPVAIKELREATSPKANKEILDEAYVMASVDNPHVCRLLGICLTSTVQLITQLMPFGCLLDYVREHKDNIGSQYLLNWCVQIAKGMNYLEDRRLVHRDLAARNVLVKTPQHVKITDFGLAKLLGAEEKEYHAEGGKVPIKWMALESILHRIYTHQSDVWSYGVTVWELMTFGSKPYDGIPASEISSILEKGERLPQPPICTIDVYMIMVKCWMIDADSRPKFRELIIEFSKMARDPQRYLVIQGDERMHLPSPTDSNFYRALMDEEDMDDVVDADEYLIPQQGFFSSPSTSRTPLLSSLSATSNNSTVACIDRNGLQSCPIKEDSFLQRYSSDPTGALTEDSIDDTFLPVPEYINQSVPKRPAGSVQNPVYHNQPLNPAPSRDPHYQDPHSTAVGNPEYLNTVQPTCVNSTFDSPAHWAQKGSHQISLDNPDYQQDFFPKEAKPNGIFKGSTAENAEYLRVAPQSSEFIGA

| SMILES | inhibition [%] |
| --- | --- |
| CCOc1cc2nc(CCl)nc(Nc3cccc(-c4csc(C)n4)c3)c2cc1OCC | 10 |
| CCOc1cc2nc(CCCl)nc(Nc3cccc(-c4csc(C)n4)c3)c2cc1OCC | 11 |
| CCOc1cc2nc(CCCCl)nc(Nc3cccc(-c4csc(C)n4)c3)c2cc1OCC | 31 |

Biological target: T1, Epidermal growth factor receptor
Experiment: as §1
Conditions: not given

| SMILES | IC50 [µM] |
| --- | --- |
| CCOc1cc2ncnc(Nc3cccc(-c4cncs4)c3)c2cc1OCC | 0.011 |
| CCOc1cc2ncnc(Nc3cccc(-c4cscn4)c3)c2cc1OCC | 0.018 |
| CCOc1cc2ncnc(Nc3cccc(-c4cocn4)c3)c2cc1OCC | 0.72 |
| CCOc1cc2nc(CC)nc(Nc3cccc(-c4csc(C)n4)c3)c2cc1OCC | 9.3 |
| C#Cc1cc(Nc2ncnc3cc(OC)c(OC)cc23)ccc1F | 0.004 |
| CCOc1cc2ncnc(Nc3cccc(-c4ccco4)c3)c2cc1OCC | 0.003 |
| CCOc1cc2nc(C)nc(Nc3cccc(-c4csc(C)n4)c3)c2cc1OCC | 9 |
| CCOc1cc2ncnc(Nc3cccc(-c4nccs4)c3)c2cc1OCC | 0.002 |
| CCOc1cc2ncnc(Nc3cccc(-c4cc[nH]n4)c3)c2cc1OCC | 0.011 |
| CCOc1cc2ncnc(Nc3cccc(-c4cncnc4)c3)c2cc1OCC | 1.1 |

More lines, now with the values ahead:

| IC50 [µM] | SMILES |
| --- | --- |
| 0.56 | CCOc1cc2ncnc(Nc3cccc(-c4csc(N)n4)c3)c2cc1OCC |
| 0.39 | CCOc1cc2ncnc(Nc3cccc(-c4nc[nH]n4)c3)c2cc1OCC |
| > 10 | CCOc1cc2ncnc(Nc3cccc(-c4cnc(C)o4)c3)c2cc1OCC |

Biological target: not listed separately
Experiment: Inhibition of human recombinant wild type fructose-1,6-bisphosphatase (F16BP)
Conditions: not given

| SMILES | IC50 [µM] |
| --- | --- |
| CCOc1cc2ncnc(Nc3cccc(-c4csc(NC)n4)c3)c2cc1OCC | 0.8 |
| CCOc1cc2ncnc(Nc3cccc(-c4cncs4)c3)c2cc1OCC | 0.98 |
| CCOc1cc2ncnc(Nc3cccc(-c4cscn4)c3)c2cc1OCC | 0.39 |
| CCCOc1cc2ncnc(Nc3cccc(-c4csc(C)n4)c3)c2cc1OCC | 1 |
| CCOc1cc2ncnc(Nc3cc(-c4csc(C)n4)ccc3Br)c2cc1OCC | > 10 |
| CCOc1cc2ncnc(Nc3cccc(-c4cocn4)c3)c2cc1OCC | 3.6 |
| CCOc1ccc(-c2csc(C)n2)cc1Nc1ncnc2cc(OCC)c(OCC)cc12 | 1.8 |
| COc1cc2c(Nc3cccc(-c4csc(C)n4)c3)ncnc2cc1OCC(C)C | > 10 |
| CCC(C)Oc1cc2ncnc(Nc3cccc(-c4csc(C)n4)c3)c2cc1OC (centres undefined) | 1.3 |
| CCOc1cc2ncnc(Nc3ccc(Cl)c(-c4csc(C)n4)c3)c2cc1OCC | 5.3 |
| CCOc1cc2ncnc(Nc3cccc(-c4csc(COC)n4)c3)c2cc1OCC | 7.3 |
| CCOc1cc2ncnc(Nc3cc(-c4csc(C)n4)ccc3OC)c2cc1OCC | 0.99 |
| CCOc1cc2nc(CS(C)(=O)=O)nc(Nc3cccc(Br)c3)c2cc1OCC | > 10 |
| CCOc1cc2nc(COC)nc(Nc3cccc(-c4csc(C)n4)c3)c2cc1OCC | 1.4 |
| CCOc1cc2ncnc(Nc3cccc(C(=O)CBr)c3)c2cc1OCC | > 10 |
| CCOc1cc2ncnc(Nc3cccc(-c4csc(C5CC5)n4)c3)c2cc1OCC | 0.83 |
| CCOc1cc2nc(Cn3ccnc3)nc(Nc3cccc(-c4csc(C)n4)c3)c2cc1OCC | 0.77 |
| CCOc1cc2ncnc(Nc3cccc(-c4csc(N(C)C)n4)c3)c2cc1OCC | 8 |
| CCOc1cc2ncnc(Nc3cccc(-c4nc(C(N)=O)cs4)c3)c2cc1OCC | 0.83 |
| CCOc1cc2nc(CN)nc(Nc3cccc(-c4csc(C)n4)c3)c2cc1OCC | 1.5 |
| CCOc1cc2nc(CN(C)C)nc(Nc3cccc(-c4csc(C)n4)c3)c2cc1OCC | 2 |
| CCOc1cc2nc(CC)nc(Nc3cccc(-c4csc(C)n4)c3)c2cc1OCC | 1.5 |
| C#Cc1cc(Nc2ncnc3cc(OC)c(OC)cc23)ccc1F | 0.25 |
| CCCc1nc(Nc2cccc(-c3csc(C)n3)c2)c2cc(OCC)c(OCC)cc2n1 | 1.4 |
| CCOc1cc2nc(CC(=O)O)nc(Nc3cccc(-c4csc(C)n4)c3)c2cc1OCC | 0.96 |
| CCOc1cc2nc(CS(C)(=O)=O)nc(Nc3cccc(-c4csc(C)n4)c3)c2cc1OCC | 2.1 |
| COc1cc2ncnc(Nc3cccc(-c4csc(C)n4)c3)c2cc1OC(C)C | > 10 |

| SMILES | IC50 [µM] |
| --- | --- |
| Cc1nc(-c2cccc(Nc3ncnc4cc5ccccc5cc34)c2)cs1 | > 10 |
| CCOc1cc2ncnc(Nc3ccc(F)c(-c4csc(C)n4)c3F)c2cc1OCC | > 10 |
| CCOc1cc2ncnc(Nc3cccc(-c4ccco4)c3)c2cc1OCC | 1.4 |
| CCNCc1nc(Nc2cccc(-c3csc(C)n3)c2)c2cc(OCC)c(OCC)cc2n1 | 6 |
| CCOc1cc2ncnc(Nc3cccc(-c4nc(C)cs4)c3)c2cc1OCC | 0.65 |
| CCOc1nc(-c2cccc(Nc3ncnc4cc(OCC)c(OCC)cc34)c2)cs1 | 6.1 |
| CCCc1nc(-c2cccc(Nc3ncnc4cc(OCC)c(OCC)cc34)c2)cs1 | > 10 |
| CCOc1cc2ncnc(Nc3cc(-c4csc(C)n4)c(F)cc3F)c2cc1OCC | > 10 |
| CCOc1cc2nc(CCCl)nc(Nc3cccc(-c4csc(C)n4)c3)c2cc1OCC | 1 |
| CCOc1cc2ncnc(Nc3cc(-c4csc(C)n4)ccc3F)c2cc1OCC | 0.48 |
| CCOc1cc2nc(CC(C)C)nc(Nc3cccc(-c4csc(C)n4)c3)c2cc1OCC | 1.7 |
| CCOc1cc2nc(CCN)nc(Nc3cccc(-c4csc(C)n4)c3)c2cc1OCC | 0.22 |
| CCOc1cc2nc(CN(C)C)nc(Nc3cccc(-c4csc(C(N)=O)n4)c3)c2cc1OCC | 2.4 |
| CCOc1cc2ncnc(Nc3cccc(-c4csc(C)n4)c3)c2cc1OC | 3.4 |
| CCOc1cc2nc(C)nc(Nc3cccc(-c4csc(C)n4)c3)c2cc1OCC | 1 |
| CCOc1cc2ncnc(Nc3cccc(-c4nccs4)c3)c2cc1OCC | 0.38 |
| CCCCOc1cc2c(Nc3cccc(-c4csc(C)n4)c3)ncnc2cc1OC | > 10 |
| COc1cc2ncnc(Nc3cccc(-c4csc(C)n4)c3)c2cc1OC | 4.4 |
| CCOc1cc2ncnc(Nc3cccc(-c4cc[nH]n4)c3)c2cc1OCC | 0.73 |
| CCOc1cc2ncnc(Nc3cccc(-c4coc(C)n4)c3)c2cc1OCC | 0.5 |
| CCOc1cc2ncnc(Nc3cccc(-c4cccnc4)c3)c2cc1OCC | 1.4 |
| CCOc1cc2ncnc(Nc3cccc(-c4cccc(C)c4)c3)c2cc1OCC | > 10 |
| CCOc1cc2c(Nc3cccc(-c4csc(C)n4)c3)ncnc2cc1OC | 1.2 |
| CCOc1cc2nc(CCCCl)nc(Nc3cccc(-c4csc(C)n4)c3)c2cc1OCC | 4.1 |
| CCOc1cc2ncnc(Nc3cccc(-c4cncnc4)c3)c2cc1OCC | 1.2 |
| CCOc1cc2ncnc(Nc3cccc(-c4csc(C(=O)O)n4)c3)c2cc1OCC | > 10 |

Now from value to compound:

| IC50 [µM] | SMILES |
| --- | --- |
| > 10 | Cc1nc(-c2cccc(Nc3ncnc4ccccc34)c2)cs1 |
| 1.7 | CCOc1cc2ncnc(Nc3cc(-c4csc(C)n4)ccc3Cl)c2cc1OCC |
| 0.42 | CCOc1cc2c(Nc3cccc(-c4csc(C)n4)c3)ncnc2cc1OC(C)C |
| > 10 | CCOc1cc2ncnc(Nc3cccc(-c4ccccc4)c3)c2cc1OCC |
| 2.1 | CCOc1cc2ncnc(Nc3cc(-c4csc(C)n4)ccc3CC)c2cc1OCC |
| 5 | CCOc1cc2nc(C(C)C)nc(Nc3cccc(-c4csc(C)n4)c3)c2cc1OCC |
| > 10 | CCOc1cc2nc(CCl)nc(Nc3cccc(Br)c3)c2cc1OCC |
| 3.5 | CCOc1cc2ncnc(Nc3cccc(-c4csc(N)n4)c3)c2cc1OCC |
| > 10 | CCOc1cc2ncnc(Nc3cccc(-c4csc(-c5ccccc5)n4)c3)c2cc1OCC |
| 0.64 | CCOc1cc2ncnc(Nc3cccc(-c4nc[nH]n4)c3)c2cc1OCC |
| > 10 | COCCOc1cc2ncnc(Nc3cccc(-c4csc(C)n4)c3)c2cc1OC |
| > 10 | Cc1nc(-c2cccc(Nc3ncnc4cc5c(cc34)OCCO5)c2)cs1 |
| 6.1 | CCOc1cc2nc(CN3CCCC3)nc(Nc3cccc(-c4csc(C)n4)c3)c2cc1OCC |
| 4.5 | CCOc1cc2ncnc(Nc3cccc(-c4csc(NN)n4)c3)c2cc1OCC |
| > 10 | CCOc1cc2ncnc(Nc3cccc(-c4csc(Cc5ccccc5)n4)c3)c2cc1OCC |
| > 10 | CCOc1cc2c(Nc3cccc(-c4csc(C)n4)c3)ncnc2c(OCC)c1OCC |
| > 10 | CCOc1cc2nc(C(F)(F)F)nc(Nc3cccc(-c4csc(C)n4)c3)c2cc1OCC |
| > 10 | CCOc1cc2ncnc(Nc3cccc(-c4ccc(C)cc4)c3)c2cc1OCC |

| IC50 [µM] | SMILES |
| --- | --- |
| 0.87 | CCOc1cc2nc(CCl)nc(Nc3cccc(-c4csc(C)n4)c3)c2cc1OCC |
| 2.3 | COc1cc2c(Nc3cccc(-c4csc(C)n4)c3)ncnc2cc1OC(C)C |
| > 10 | COc1cc2c(Nc3cccc(-c4csc(C)n4)c3)ncnc2cc1OC1CCCC1 |
| 0.78 | CCOc1cc2ncnc(Nc3cccc(-c4csc(OC)n4)c3)c2cc1OCC |
| 0.39 | CCOc1cc2ncnc(Nc3cccc(-c4ccccn4)c3)c2cc1OCC |
| 4 | CCOc1cc2ncnc(Nc3cccc(-c4cnc(C)o4)c3)c2cc1OCC |
| > 10 | COCCOc1cc2c(Nc3cccc(-c4csc(C)n4)c3)ncnc2cc1OC |
| 5.6 | CCCOc1cc2ncnc(Nc3cccc(-c4csc(C)n4)c3)c2cc1OC |
| > 10 | CCOc1cc2ncnc(Nc3cc(-c4csc(C)n4)cc(C(F)(F)F)c3)c2cc1OCC |
| 2.6 | CCOc1cc2nc(Cl)nc(Nc3cccc(-c4csc(C)n4)c3)c2cc1OCC |
| > 10 | CCOc1cc2ncnc(Nc3cccc(C(C)=O)c3)c2cc1OCC |
| 0.61 | CCOc1cc2ncnc(Nc3ccc(F)c(-c4csc(C)n4)c3)c2cc1OCC |
| > 10 | CCOc1cc2ncnc(Nc3cccc(-c4ccccc4C)c3)c2cc1OCC |
| > 10 | CCOc1cc2nc(Cc3ccccc3)nc(Nc3cccc(-c4csc(C)n4)c3)c2cc1OCC |
| > 10 | CCOc1cc2nc(CC(C)C)nc(Nc3cccc(Br)c3)c2cc1OCC |
| > 10 | CCCCOc1cc2ncnc(Nc3cccc(-c4csc(C)n4)c3)c2cc1OC |
| 1.8 | CCOc1cc2ncnc(Nc3cc(-c4csc(C)n4)ccc3C)c2cc1OCC |
